This note sets out measurements from article PMC9369794 (Molecules, 2022).

Data set [1] in a line: Study of aggregation by UV-Vis spectrophotometry. Type of data set: physicochemical. To be noted: for type of aggregates formed: from THF:aqueous solutions; for change of UV spectrum with increasing ratio of PBS: starting from THF solutions. The source says: It has been known for a long while that carotenoids or their derivatives can be prone to supramolecular organization in water or water-organic solvent mixtures. This behaviour is especially interesting because this higher organization can modulate or alter biological properties of carotenoids, as well [40]. A tendency to form supramolecular structures can be tested by recording the UV spectra in an organic solvent and increasing the ratio of water in the sample. […] We have some recent experience of such behaviour of carotenoid-flavonoid conjugates.
All of our adducts were tested with the method above using tetrahydrofurane (THF) or dimethylsulfoxide (DMSO) with increasing ratio of phosphate-buffered saline (PBS), which was the medium of the antioxidant measurements. […]
1. Study of Aggregation by UV-Vis Spectrophotometry
Starting from THF solutions: each conjugate was dissolved in freshly distilled THF and the solutions were diluted
either with THF or THF-PBS mixtures to obain final solutions of identical carotenoid concentration. […]
Figure S1. UV-spectra of 8’-apo-β-carotenol succinate ( 6) ( a) in THF and in THF-PBS mixtures ( 1:1 , 1:3); (b) in DMSO
Figure S2. UV-spectra of zeaxanthin bissuccinate ( 7) ( a) in THF and in THF-PBS mixtures ( 1:1 , 1:3); (b) in DMSO and
Figure S3. UV-spectra of zeaxanthin monosuccinate ( 11) ( a) in THF and in THF-PBS mixtures ( 1:1 , 1:3); (b) in DMSO […]

Data set [2] in a line: TEAC assay using ABTS radical. To be noted: 6 min, ratio of slopes to trolox (melatonin dissolved in EtOH); for TEAC from DMSO: stock in DMSO diluted with PBS pH 7.4, 37 °C; for TEAC from THF: stock in THF diluted with PBS pH 7.4, 37 °C. How it is done:
This method uses a redox reaction between ABTS^•+ radical cation and the examined antioxidants, which act as the reducing agents. […] As the carotenoids and the conjugates are poorly soluble in water, they were dissolved first either in small amounts of freshly distilled tetrahydrofuran (THF) or in dimethylsulfoxide (DMSO), and these stock solutions were diluted with phosphate-buffered saline (PBS) to the final nominal concentration.
The TEAC values were determined in isotonic phosphate buffer of pH 7.4. The buffer solution was made by dissolving 9.55 g of DPBS powder in distilled water to form 1L of solution (composition: 0.138 M NaCl, 0.0027 M KCl, 0.0081 M Na2HPO4, 0.0015 M KH2PO4). The assay was performed according to a literature process with slight modifications. The ABTS^•+ radical cation was produced by reacting 7 mM 2,2′-azino-bis(3-ethylbenzothiazoline-6-sulfonic acid) and 2.45 mM potassium persulfate in water. The stock ABTS^•+ solution was prepared 12–16 h before the experiments, and stored at room temperature in dark. The absorbance of the ABTS^•+ solution was set to 0.70 ± 0.05 at 734 nm by a ca. 100-fold dilution with phosphate-buffered saline (PBS). […] The stock solutions were diluted with PBS such that equal amounts of the diluted solutions were added to the ABTS^•+ reagent to obtain final antioxidants concentrations of 0.3125, 0.625, 1.25, 2.50, 3.75, 5 μM, respectively. In the blank (0 μM), the solutions of the antioxidants were substituted with THF or DMSO.
The antioxidants were incubated with ABTS^•+ solution at 37 °C for 6 min. During the reaction of ABTS^•+ with the antioxidants the absorbance of the solution decreases. The percentage inhibition of absorbance at 734 nm was calculated as (A0 − Aantioxidant)/A0, where A0 is the absorbance of the ABTS^•+ solution and Aantioxidant is the absorbance measured after the addition of the antioxidant. The determinations were carried out at each concentration in triplicate. The calculated values were plotted against the final concentration of the antioxidants. The slopes of the curves were compared with that for trolox, the TEAC value is the ratio of the slopes for the antioxidant and for trolox.

Data set [3] is described as follows: FRAP assay for the antioxidant capacity. On the set-up: key to FRAP: slope of concentration-absorbance line divided by Trolox slope. The conditions noted are these: stock in THF, acetate buffer pH 3.0, 37 °C, 15 min; ratio of slopes to trolox (melatonin in EtOH). How it is done: In the FRAP method the antioxidant reduces Fe^3+ to Fe^2+ in an acidic medium. These experiments were performed in an acetate buffer of pH 3.0, the stock solutions of the examined antioxidants were prepared in THF. The antioxidant capacities were compared to that of Trolox as a standard, just like in the ABTS assays.
A modified literature process was used. The FRAP reagent should also be prepared freshly each day. 2,4,6-Tris(2-pyridyl)-s-triazin (TPTZ) was dissolved in a 200 mM HCl solution and diluted with water to get a final 40 mM HCl and 10 mM TPTZ concentration. For the preparation of the FRAP reagent 30 mL of 20 mM FeCl3 solution and 30 mL of 10 mM TPTZ solution were mixed, and 300 mL of 300 mM acetate buffer with pH 3.0 was added (a pH lower than usual was used to avoid the precipitation of the TPTZ). The FRAP reagent was incubated at 37 °C for 15 min. 150 μL of antioxidant dissolved in THF was mixed with 2.85 mL FRAP reagent solution, and incubated at 37 °C for 15 min in dark. Measurements were carried out at each antioxidant concentration (0, 7.5; 10; 12.5; 15; 17.5 μM final concentration) in triplicate. In the 0 μM solution the antioxidant solution was substituted with acetate buffer (pH 3.0). The FRAP was determined at 600 nm: the absorbance values were plotted as a function of concentration of the sample compounds and that of Trolox for the standard reference data. The FRAP values were calculated as in the ABTS assays, i.e., the slope of the concentration-absorbance lines for the carotenoid derivatives was divided by that for the trolox.

A short description of data set [4]: Hydrodynamic diameter and colloidal stability of aggregates by dynamic light scattering. It counts as physicochemical. To be noted: for mean size (hydrodynamic diameter) / zeta potential: 37 °C; for PDI: sd^2/mean size^2. How it is done: In contrary, all spectra gave a hypsochromic shift and loss of fine-structure when the DMSO solutions were diluted with PBS, which refers to the formation of H-type (card-pack) aggregates (Figures S1–S12). Since DMSO-containing aqueous systems are more suitable for biological studies, we examined these solution by dynamic light scattering (DLS) spectroscopy to gain more information about the particles. The concentrations of the examined solutions were the same as used in the ABTS/TEAC measurements (0.3125–5.00 μM, see next section).
Size determination of aggregates and the colloidal stability of the sample dispersions were determined by dynamic light scattering measurements, where the hydrodynamic diameter of particles, and zeta potential values were collected. The number-weighted size distribution indicated one main peak in each case, the polydispersity index (PDI) was calculated as sd^2/mean size^2. For the particle size analysis Malvern Zetasizer Nano S instrument and for the zeta potential determination Malvern Zetasizer Nano Z instrument were used (Malvern Panalytical Ltd., Great Malvern, Worcestershire, UK). The measurements were carried out in autocorrelation mode, and the following parameters were kept constant: scattering angle 173°, attenuator 11 and its factor 0.0146, measurement position 4.65 mm. The concentrations of sample dispersions were between 0.3125 and 5 µM. The dispersion medium was PBS. Each samples was examined after 6 min incubation period at 37 °C.

Setting [5] is: 0.3125 μM in PBS from DMSO stock.
[6] abbreviates: 0.625 μM in PBS from DMSO stock.

For the compound `COc1ccc2[nH]cc(CCNC(=O)CNC(=O)CCC(=O)O[C@@H]3CC(C)=C(/C=C/C(C)=C/C=C/C(C)=C/C=C/C=C(C)/C=C/C=C(C)/C=C/C4=C(C)C[C@@H](OC(=O)CCC(=O)NCC(=O)NCCc5c[nH]c6ccc(OC)cc56)CC4(C)C)C(C)(C)C3)c2c1` [Compound 14, Zeaxanthin-bismelatonin conjugate], the melting point (commonly the temperature of the solid-liquid transition) fell in the range of 149 to 150 °C. In data set [1], the “type of aggregates formed” value is “J-type (head-to-tail) aggregates” and the “change of UV spectrum with increasing ratio of PBS” value is recorded as “bathochromic shift”. Besides, in data set [2], the “TEAC from DMSO” value is given as 2.79 and the “TEAC from THF” value is recorded as 2.080. Moreover, the FRAP in data set [3] came out at 0.206. Besides, in data set [4] (setting [5]), the “mean size (hydrodynamic diameter)” value was “too large for DLS” and the zeta potential was −0.7 mV. For the same compound, in data set [4] (setting [6]), the “mean size (hydrodynamic diameter)” value was “too large for DLS” and the zeta potential is given as −0.7 mV. Besides, in data set [4] (1.25 μM in PBS from DMSO stock), the “mean size (hydrodynamic diameter)” value is on record as “too large for DLS” and the zeta potential is on record as −1.0 mV. In data set [4] (2.5 μM in PBS from DMSO stock), the “mean size (hydrodynamic diameter)” value came to 137.50 nm and the zeta potential is −0.4 mV. This compound also registered a PDI in data set [4] (2.5 μM in PBS) of 0.0147. Moreover, in data set [4] (3.75 μM in PBS from DMSO stock), the “mean size (hydrodynamic diameter)” value is on record as 91.77 nm and the zeta potential is recorded as −0.2 mV. This compound showed a PDI in data set [4] (3.75 μM in PBS) of 0.0108. Also, in data set [4] (5 μM in PBS from DMSO stock), the “mean size (hydrodynamic diameter)” value was found to be 705.10 nm and the zeta potential is 0.0 mV. Moreover, the PDI in data set [4] (5 μM in PBS) is on record as 0.0659.
For `COc1ccc2[nH]cc(CCNC(=O)CNC(=O)CCC(=O)O[C@@H]3CC(C)=C(/C=C/C(C)=C/C=C/C(C)=C/C=C/C=C(C)/C=C/C=C(C)/C=C/C4=C(C)CCCC4(C)C)C(C)(C)C3)c2c1` [Compound 15, Cryptoxanthin-melatonin conjugate], the melting point is 153 to 154 °C. Besides, in data set [1], the “type of aggregates formed” value was “J-type (head-to-tail) aggregates” and the “change of UV spectrum with increasing ratio of PBS” value is listed as “bathochromic shift”. Also, the “TEAC from THF” value in data set [2] was 1.777. Moreover, the FRAP in data set [3] is given as 0.154. In data set [4] (setting [5]), the “mean size (hydrodynamic diameter)” value stood at 29.79 nm and the zeta potential was −13.4 mV. For the same compound, the PDI in data set [4] (0.3125 μM in PBS) was 0.0356. Further, in data set [4] (setting [6]), the “mean size (hydrodynamic diameter)” value is recorded as 31.22 nm and the zeta potential was −23.5 mV. The PDI in data set [4] (0.625 μM in PBS) came to 0.1230. In data set [4] (1.25 μM in PBS from DMSO stock), the “mean size (hydrodynamic diameter)” value was determined as 74.91 nm and the zeta potential was −20.8 mV. For the same compound, the PDI in data set [4] (1.25 μM in PBS) was determined as 0.1051. In addition, in data set [4] (2.5 μM in PBS from DMSO stock), the “mean size (hydrodynamic diameter)” value was 305.10 nm and the zeta potential is −20.4 mV. This compound showed a PDI in data set [4] (2.5 μM in PBS) of 0.1649. Besides, in data set [4] (3.75 μM in PBS from DMSO stock), the “mean size (hydrodynamic diameter)” value is reported as 826.80 nm and the zeta potential was −11.8 mV. The same compound came in with a PDI in data set [4] (3.75 μM in PBS) of 0.0840. Further, in data set [4] (5 μM in PBS from DMSO stock), the “mean size (hydrodynamic diameter)” value was 615.10 nm and the zeta potential is listed as −15.7 mV. In addition, the PDI in data set [4] (5 μM in PBS) was 0.0992.
Take `COc1ccc2[nH]cc(CCNC(=O)CNC(=O)CCC(=O)O[C@@H]3CC(C)=C(/C=C/C(C)=C/C=C/C(C)=C/C=C/C=C(C)/C=C/C=C(C)/C=C/C4C(C)=C[C@@H](OC(=O)CCC(=O)NCC(=O)NCCc5c[nH]c6ccc(OC)cc56)CC4(C)C)C(C)(C)C3)c2c1` (some centres unmarked) [Compound 16, Lutein-bismelatonin conjugate]: the melting point was 123 to 124 °C. Also, in data set [1], the “type of aggregates formed” value was “J-type (head-to-tail) aggregates” and the “change of UV spectrum with increasing ratio of PBS” value was “bathochromic shift”. In data set [2], the “TEAC from DMSO” value was 2.40 and the “TEAC from THF” value came out at 2.933. Further, the FRAP in data set [3] amounted to 0.460. Also, in data set [4] (setting [5]), the “mean size (hydrodynamic diameter)” value worked out at 131.20 nm and the zeta potential was −12.2 mV. The compound also registered a PDI in data set [4] (0.3125 μM in PBS) of 0.2022. Besides, in data set [4] (setting [6]), the “mean size (hydrodynamic diameter)” value turned out to be 51.10 nm and the zeta potential is recorded as −11.7 mV. The compound further came in with a PDI in data set [4] (0.625 μM in PBS) of 0.0673. In addition, in data set [4] (1.25 μM in PBS from DMSO stock), the “mean size (hydrodynamic diameter)” value is recorded as 142.50 nm and the zeta potential was −12.5 mV. Moreover, the PDI in data set [4] (1.25 μM in PBS) was determined as 0.0108. In addition, in data set [4] (2.5 μM in PBS from DMSO stock), the “mean size (hydrodynamic diameter)” value came to 91.19 nm and the zeta potential is recorded as −27.5 mV. This compound also yielded a PDI in data set [4] (2.5 μM in PBS) of 0.1585. In data set [4] (3.75 μM in PBS from DMSO stock), the “mean size (hydrodynamic diameter)” value was determined as 39.28 nm and the zeta potential is reported as −1.4 mV. The compound further had a PDI in data set [4] (3.75 μM in PBS) of 0.1229. In data set [4] (5 μM in PBS from DMSO stock), the “mean size (hydrodynamic diameter)” value is given as 43.14 nm and the zeta potential is given as −0.5 mV. Also, the PDI in data set [4] (5 μM in PBS) is on record as 0.0264.
